As a reminder, the IC50 is the concentration at which inhibition is half-maximal. By half-life is commonly meant how long it takes for the measured level to halve. Broadly, the pIC50 is the negative decadic logarithm of the IC50, by convention in mol/L. One may read the pEC50 as the negative decadic logarithm of the EC50, by convention in mol/L. As a reminder, the bioavailability is dose-corrected exposure relative to a reference, in per cent. The EC50 is the concentration that produces a half-maximal response.

For series [1], the species on record is Homo sapiens. Put plainly: Selectivity ratio of IC50 for HIF-PHD2 (unknown origin) to IC50 for HIF-PHD1 (unknown origin).
Series [2] relates to Homo sapiens. The series can be described thus: In vivo inhibition of PHD in human assessed as induction of EPO level in serum at 10 mg measured after 4 weeks. Type of series: functional.
The subject of series [3] is Mus musculus. Put plainly: In vivo inhibition of PHD in B6D2F1 mouse assessed as induction of EPO level at 60 mg/kg measured at 12 hrs post dose relative to control. Type of series: functional.
A further series addresses Prolyl hydroxylase EGLN2 (Homo sapiens, UniProt Q96KS0). The series can be described thus: Inhibition of PHD1 (unknown origin).
Series [4] addresses T1, Prolyl hydroxylase EGLN3 (Homo sapiens, UniProt Q9H6Z9). Put plainly: Inhibition of PHD3 (unknown origin).
Series [5] has as its target T2, Egl nine homolog 1 (Homo sapiens, UniProt Q9GZT9). Put plainly: Inhibition of human PHD2 expressed in 293FT cells using HIF-1 [alpha] as substrate after 20 mins by fluorescence polarization assay. (In general: Polarisation of emitted light reports the rotation of a fluorescent probe.)
For series [6], the target named is T2, Egl nine homolog 1. The series can be described thus: Inhibition of N-terminal truncated PHD2 (unknown origin) using biotin labelled DLDLEMLAPYIPMDDDFQL as substrate by AlphaScreen assay. (Alpha assays give light when donor and acceptor beads are brought close together.)
For series [7], the species on record is Homo sapiens. Put plainly: Inhibition of PHD in human Hep3B cells assessed as induction of EPO level by cell based assay relative to control.
Series [8] concerns the target T1, Prolyl hydroxylase EGLN3. Put plainly: Inhibition of His tagged MBP-PHD3 (1 to 230 residues) (unknown origin) expressed in Escherichia coli using Cy5-labelled HIF2alpha as substrate preincubated for 3 mins followed by substrate addition nmeasured after 30 mins by LANCE assay. A general note: Time-resolved FRET reads energy transfer from a long-lived donor to a nearby acceptor.

The species entered for series [9] is Homo sapiens. Put plainly: Antianemic activity in human assessed as increase in hemoglobin level. Type of series: functional.
Series [10] can be described thus: Half life in human at 1 to 2 mg/kg, po administered as two or three times weekly. Type of series: ADME, organism-based. Particulars: in vivo.
Series [11] relates to Homo sapiens. The series can be described thus: In vivo inhibition of PHD in human assessed as induction of EPO level in serum at 1 mg/kg, po administered as twice weekly measured at 4 to 10 hrs post dose. It counts as functional.
Series [12] can be described thus: Inhibition of PHD (unknown origin). Also on record: species or system Homo sapiens.
Series [13] can be described thus: Inhibition of PHD in rat H9C2 cells after 24 hrs by ELISA. Type of series: cell-based.
Series [14] concerns Rattus norvegicus. Put plainly: In vivo inhibition of PHD in Wistar rat assessed as increase in packed cell volume at 1.25 mg/kg, po measured after 26 days relative to control. It counts as functional. Also on record: scale not given: the % may be the effect or the level left.
For series [15], the system named is Rattus norvegicus. Put plainly: In vivo inhibition of PHD in Wistar rat assessed as increase in packed cell volume at 5 mg/kg, po measured after 26 days relative to control. It counts as functional. Also on record: scale not given: the % may be the effect or the level left.
A short description of series [16]: Oral bioavailability in dog. As to conditions: in vivo. Type of series: ADME, organism-based, Canis lupus familiaris.
Series [17] in a line: Oral bioavailability in monkey. It counts as ADME, organism-based, Macaca mulatta. As to conditions: rhesus monkey, in vivo.
Series [18] is described as follows: Oral bioavailability in Wistar rat. It counts as ADME, organism-based. As to conditions: in vivo.
Series [19] concerns Homo sapiens. The series can be described thus: In vivo inhibition of PHD in human assessed as induction of EPO level in serum at 900 mg measured after 18 hrs. It counts as functional.
Series [20] deals with T2, Egl nine homolog 1. The series can be described thus: Inhibition of FLAG- tagged full length HIF-PHD2 (unknown origin) expressed in baculovirus-infected Sf9 cells using biotin labelled DLDLEMLAPYIPMDDDFQL as substrate preincubated for 30 mins followed by substrate addition measured after 2 hrs by LANCE assay.
For series [21], the species on record is Homo sapiens. Put plainly: Inhibition of PHD (unknown origin) assessed as induction of EPO by cell based assay relative to control.
Series [22] is filed under the species Homo sapiens. The series can be described thus: Selectivity ratio of IC50 for PHD3 (unknown origin) to IC50 for PHD2 (unknown origin).
In series [23] the target is T2, Egl nine homolog 1. The series can be described thus: Inhibition of HIF-PHD2 (unknown origin) by fluorescence polarization assay.
Series [24] can be described thus: Inhibition of PHD (unknown origin) by FRET assay. Also on record: species or system Homo sapiens.
The nature of series [25]: Inhibition of PHD in human A549 cells by luciferase reporter gene assay. It counts as cell-based.
Series [26] deals with Mus musculus. The series can be described thus: Cardioprotective activity in C57BL/6 mouse assessed as reduction in lactate dehydrogenase release to coronary effluent at 30 mg/kg measured at 4 hrs post dose relative to control. Type of series: functional. Also on record: scale not given: the % may be the effect or the level left.
The subject of series [27] is Mus musculus. Put plainly: Cardioprotective activity in C57BL/6 mouse assessed as induction in VEGF mRNA levels at 60 mg/kg, po measured at 2 hrs post dose by qRT-PCR relative to control. Type of series: functional.
The test system of series [28] is Mus musculus. Put plainly: Cardioprotective activity in C57BL/6 mouse assessed as reduction in area of infract at 10 mg/kg measured at 4 hrs post dose relative to control. Type of series: functional. Also on record: scale not given: the % may be the effect or the level left.
The subject of series [29] is Mus musculus. Put plainly: Cardioprotective activity in C57BL/6 mouse assessed as reduction in lactate dehydrogenase release to coronary effluent at 10 mg/kg measured at 4 hrs post dose relative to control. It counts as functional. Also on record: scale not given: the % may be the effect or the level left.
For series [30], the system named is Mus musculus. The series can be described thus: Cardioprotective activity in C57BL/6 mouse assessed as reduction in area of infract at 30 mg/kg measured at 4 hrs post dose relative to control. It counts as functional. Also on record: scale not given: the % may be the effect or the level left.

A value given as a limit tells only on which side of the number the result lay.

T1 sequence (Q9H6Z9 whole entry): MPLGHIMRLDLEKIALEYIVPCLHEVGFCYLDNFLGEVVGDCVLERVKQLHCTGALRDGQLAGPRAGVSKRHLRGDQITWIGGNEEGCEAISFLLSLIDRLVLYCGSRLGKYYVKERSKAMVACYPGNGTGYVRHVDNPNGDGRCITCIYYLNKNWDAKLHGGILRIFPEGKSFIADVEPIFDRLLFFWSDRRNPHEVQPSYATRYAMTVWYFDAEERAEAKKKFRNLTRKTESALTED
T2 sequence (Q9GZT9 whole entry, the tested form may be a part): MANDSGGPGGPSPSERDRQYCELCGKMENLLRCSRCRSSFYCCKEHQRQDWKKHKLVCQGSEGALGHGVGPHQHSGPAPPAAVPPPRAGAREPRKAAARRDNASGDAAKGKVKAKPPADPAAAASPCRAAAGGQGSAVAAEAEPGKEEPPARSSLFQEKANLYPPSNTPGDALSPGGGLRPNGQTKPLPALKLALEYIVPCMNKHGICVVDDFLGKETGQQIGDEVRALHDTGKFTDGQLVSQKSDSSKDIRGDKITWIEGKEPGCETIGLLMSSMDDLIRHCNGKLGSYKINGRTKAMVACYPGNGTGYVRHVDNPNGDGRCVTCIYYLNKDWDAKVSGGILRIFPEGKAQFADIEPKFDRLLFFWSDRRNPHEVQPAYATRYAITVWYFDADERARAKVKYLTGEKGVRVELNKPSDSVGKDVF
Prolyl hydroxylase EGLN2, sequence (Q96KS0 whole entry): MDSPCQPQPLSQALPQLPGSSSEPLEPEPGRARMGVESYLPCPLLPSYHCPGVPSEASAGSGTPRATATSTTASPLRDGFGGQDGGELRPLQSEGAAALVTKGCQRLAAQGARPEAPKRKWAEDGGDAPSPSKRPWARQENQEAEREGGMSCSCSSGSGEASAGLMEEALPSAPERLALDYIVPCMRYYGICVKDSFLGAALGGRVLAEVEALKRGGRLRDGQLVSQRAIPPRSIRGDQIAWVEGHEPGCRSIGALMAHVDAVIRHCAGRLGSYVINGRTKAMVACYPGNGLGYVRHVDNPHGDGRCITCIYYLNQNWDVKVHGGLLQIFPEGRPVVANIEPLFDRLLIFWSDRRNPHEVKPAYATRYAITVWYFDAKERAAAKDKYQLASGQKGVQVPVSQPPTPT

For `COc1ccc(Oc2ccc3c(O)c(C(=O)NC(C)(C)CC(=O)O)nc(C#N)c3c2)cc1`, the Ratio IC50 in the series filed under Homo sapiens [1] stood at 40.

Consider `O=C(O)CNC(=O)c1c(O)n(C2CCCCC2)c(=O)n(C2CCCCC2)c1=O`, for which the Activity with Homo sapiens [2] was 500 mIU/ml. Moreover, in the series with Mus musculus [3], the “fold change (FC)” value is given as 11.2. The figures for the IC50 on Prolyl hydroxylase EGLN2 and against Prolyl hydroxylase EGLN3 [4] were 3.5 nM and 5.5 nM, respectively. `O=C(NCc1ccc2c(c1)CCO2)c1ccc(-c2ncn[nH]2)nc1`: the IC50 against Egl nine homolog 1 [5] amounted to 61 nM. On to `O=C(O)CCC(=O)NNC(=O)c1cc2ccccc2cn1`, for which the half-maximal inhibitory concentration (IC50) at Egl nine homolog 1 [6] was 18400 nM. On to `CC(CC(=O)O)NC(=O)c1nc(C#N)c2cc(Oc3ccccc3)ccc2c1O` (stereo not given), for which, in the series listed under Homo sapiens [1], the Ratio IC50 was determined as 40. Take `CC(=O)Nc1c[nH]n(-c2ccc(C(=O)NCc3cccc(-c4ccccc4)c3)cc2)c1=O`: in the series filed under Homo sapiens [7], the fold change (FC) was 40.

The compound `COc1ccc(-n2c(=S)[nH]c3cc(C(=O)NCc4ccc(Cl)cc4)sc3c2=O)nc1OC` had an IC50 against Prolyl hydroxylase EGLN3 [8] of 1 to 100 nM. Regarding `Cc1nc(C(=O)NCC(=O)O)c(O)c2ccc(Oc3ccccc3)cc12` [ROXADUSTAT], the Activity result in the series listed under Homo sapiens [9] is recorded as “>=1 g/dl”; with Homo sapiens [11], 115 mU/ml. The compound further showed a half-life in series [10] of 12 h. Turning to `COCC1(CNC(=O)c2ccc(-n3ncc(-c4ccnc(OC)c4)c3O)nc2)CCCC1`, in series [12], the pIC50 was determined as 8.4. For the same compound, the pEC50 in series [13] was 6.45. Consider `O=c1c(-n2ccnn2)c[nH]n1-c1cc(N2CCOCC2)ncn1` [MOLIDUSTAT], for which the figures for the Activity in the series on Rattus norvegicus [14] and with Rattus norvegicus [15] were 3% and 17%, respectively. The bioavailability in series [16] came to 71%; in series [17] it was 61%; in series [18], 34%. With `O=C(O)CNC(=O)c1ncc(-c2cccc(Cl)c2)cc1O`, the Activity with Homo sapiens [19] turned out to be 32.4 mU/ml.

As to `COc1ccc(C(NC(=O)c2cnc(-c3cccnn3)nc2O)c2ccc([PH](=O)O)cc2)cc1` (stereo not given), the IC50 on Egl nine homolog 1 [20] is < 10 nM.

For `N#Cc1nc(C(=O)NCCC(=O)O)c(O)c2ccc(Oc3ccccc3)cc12`, in the series filed under Homo sapiens [1], the Ratio IC50 was determined as 5. Regarding `O=C(O)c1cnn(-c2nc(O)c3c(cnn3C(c3ccc(Cl)cc3)c3ccc(Cl)cc3)n2)c1`, the fold change (FC) in the series listed under Homo sapiens [21] worked out at 40. Moreover, the Ratio IC50 in the series filed under Homo sapiens [22] stood at 130.

`O=C(O)CNC(=O)c1ncc(C#CCOc2ccc(Cl)cc2)cc1O` [DDO-3055]: inhibition against Egl nine homolog 1 [23] was half-maximal at 13700 nM (IC50). For `O=C(Cc1ccc(-c2ccccc2)cc1)Nc1cnc(-n2cccn2)nc1O`, the IC50 at Egl nine homolog 1 [20] is 0.7 nM. `CC(C)(C)NC(=O)c1ccc(-n2[nH]cc(-c3cccnc3)c2=O)nc1` registered an IC50 in [24] of 910 nM. In turn, `COc1ccc(-n2c(=O)[nH]c3cc(C(=O)NCc4ccc(Cl)cc4)sc3c2=O)nc1OC` yielded an IC50 against Prolyl hydroxylase EGLN3 [8] of 1 to 100 nM. In series [24], `O=c1c(-c2cccnc2)c[nH]n1-c1ccccn1` yielded an IC50 of 430 nM. In series [25], this compound returned an EC50 of 4900 nM. On to `O=C(O)CNC(=O)c1ncc(-c2cccc(F)c2)cc1O`, for which the IC50 against Egl nine homolog 1 [23] came out at 13700 nM. As for `O=C(O)CCNC(=O)c1ncc(C(=O)NC(c2ccccc2)c2ccccc2)c(O)n1`, at Egl nine homolog 1 [20], the IC50 was < 20 nM.

Take `CCN1CCN(C(=O)c2ccc(-n3ncc(-c4ccc(C#N)cc4C)c3O)nc2)CC1`: the Activity turned out to be 56% with Mus musculus [26], 50% in the series on Mus musculus [28], 51% in the series with Mus musculus [29] and 59% in the series on Mus musculus [30]. Further, the “fold change (FC)” value in the series with Mus musculus [27] stood at 2. Further, the pIC50 in [12] turned out to be 8. The same compound yielded a pEC50 in series [13] of 6.25.

(Values after ChEMBL document CHEMBL4145565, “Prolyl Hydroxylase Inhibitors: A Breakthrough in the Therapy of Anemia Associated with Chronic Diseases” (J Med Chem, 2018).)
